In paper PMC5000617, “Antiproliferative and Pro-Apoptotic Effect of Novel Nitro-Substituted Hydroxynaphthanilides on Human Cancer Cell Lines” (International Journal of Molecular Sciences, 2016):

How the values were obtained:
3T3-L1 cells = assay: WST-1 cell proliferation assay, 3T3-L1 non-tumour cells; format: cell-based, mouse
Procedure: (§1) THP-1 human monocytic leukemia cell line, MCF-7 human breast adenocarcinoma cells and 3T3-L1 mouse embryonic fibroblast were purchased from the European Collection of Cell Cultures (ECACC, Salisbury, UK). Cells were routinely tested for the absence of mycoplasma (Hoechst 33258 staining method). THP-1 cells were maintained in RPMI 1640 culture medium containing 2 mM L-glutamine; MCF-7 and 3T3-L1 cells were cultured in DMEM medium. All of the culture media were supplemented with 10% heat-inactivated FBS and antibiotics (100 U/mL penicillin and 100 μg/mL streptomycin). Cells were maintained at 37 °C in a humidified atmosphere containing 5% CO2.
(§2) Cell proliferation was evaluated using Cell Proliferation Reagent WST-1 (2-(4-iodophenyl)-3-(4-nitrophenyl)-5-(2,4-disulfophenyl)-2H-tetrazolium) (Roche Diagnostics, Mannheim, Germany) according to the manufacturer´s instructions. THP-1 (5 × 10^4 cells/100 μL culture medium per well), MCF-7 cells (1 × 10^4 cells/100 μL per well), and 3T3-L1 (2.5 × 10^3 cells/100 μL per well) were cultured in 96-well plates in triplicate. The measurement was performed using Synergy 2 Multi-Mode Microplate Reader (BioTek, Winooski, VT, USA) after 24 h incubation of cells with tested compounds dissolved in DMSO and subsequently in RPMI 1640 to final concentration ranging 0.5–20 μM in the assays. Cell viability was assessed by dye exclusion test. THP-1 (2 × 10^5 cells/mL per well) and MCF-7 cells (8 × 10^4 cells/mL per well) were incubated in 24-well plates with the indicated concentrations of compounds for 24 h. The number of viable cells was determined using hemocytometer after their staining with a solution of erythrosin B (0.1% erythrosin B (w/v) in PBS). The assays were conducted in triplicate. The IC50 and LC50 values were calculated from fitted concentration-response curves using GraphPad Prism 5.00 software (GraphPad Software, San Diego, CA, USA).

[1] = Erythrosin B dye exclusion viability test, THP-1; format: cell-based; settings: human, THP-1 cells; erythrosin B exclusion test, 24 h, mean ± SD; read-out: THP-1 LC50
Procedure: (§3) Subsequently, for the comparison of the antiproliferative and cytotoxic effects we assessed the cell viability after 24 h treatment with compounds 1–6 in both tumour cell lines using the dye exclusion test.
as §1, §2

THP-1 cells = assay: Erythrosin B dye exclusion viability test, THP-1; format: cell-based
Procedure: as §3, §1, §2

MCF-7 cells = assay: Flow cytometric cell cycle analysis (PI), MCF-7; format: cell-based, human; settings: MCF-7, 24 h
Procedure: In order to determine at which stage of the cell cycle these compounds induce cell growth inhibition, flow cytometric analyses of cell cycle profiles in THP-1 and MCF-7 cell lines were performed. […] Therefore, THP-1 and MCF-7 cells were treated for 24 h with the compounds at concentrations of 2.5, 5, and 10 μM, respectively. In general, we detected a qualitatively similar effect on the distribution of cells in cell cycle phases following the treatment with compounds 2 and 6 in both leukaemia and breast carcinoma cells. […] This was in concert with a simultaneous decrease in the number of cells observed in the S phase compared to the drug-free control, while the percentage of cells in the G2/M phase remained unchanged.
THP-1 and sub-confluent MCF-7 cells were treated and subsequently incubated with indicated concentrations of compounds 2 and 6 for 24 h. After the incubation, cells were washed twice in PBS (pH 7.4), fixed in 70% ethanol and stored at −20 °C overnight. Fixed cells were collected by centrifugation, and supernatant was discarded. The cell pellet was washed twice with PBS and incubated with RNaseA (0.02 mg/mL) and 0.05% (v/v) Triton X-100 in PBS for 30 min at 37 °C. After the nuclei staining with propidium iodide (PI) (0.04 mg/mL), the cell cycle distribution was analysed using a flow cytometer Cell Lab Quanta SC (Beckman Coulter, Brea, CA, USA). The quantification of cell cycle distribution was carried out using software MultiCycle AV (Phoenix Flow System, San Diego, CA, USA). A total number of 2 × 10^4 cells was analysed per sample.

cyclin E1 = assay: Western blot of cyclin E1 in THP-1 cells; format: cell-based, human; settings: THP-1, 24 h
Procedure: (§4) Additionally, the cell cycle analysis allows determining the presence of a subdiploid cell population as a characteristic marker of cells with fractional DNA content. A significant increase (p < 0.001) of the sub-G1 peak was found only after the treatment with 5 µM of compound 2 in THP-1 cells, where an approximately eight-fold increase was observed compared to the drug-free control (Figure 4).
(§5) For Western blotting, cells were washed with PBS and lysed in lysis buffer (100 mM Tris-HCl, pH = 6.8; 20% glycerol; 1% SDS) containing protease and phosphatase inhibitor cocktails. Protein concentration was measured using Roti®-Quant universal (Carl Roth, Karsruhe, Germany) according to the manufacturer’s instructions. Cell lysates were supplemented with bromophenol blue (final concentration 0.01% (w/v)) and β-mercaptoethanol (final concentration 1% (v/v)) prior to being heated for 5 min at 95 °C. Equal amounts of protein (10 μg) were loaded into a 12% polyacrylamide gel, separated by SDS-polyacrylamide gel electrophoresis and subsequently electrotransferred onto nitrocellulose membranes. Reversible Ponceau S. staining was performed to assess equal sample loading. Then, the membranes were blocked with 5% non-fat dry milk in TBST (10 mM Tris-HCl pH = 7.5, 150 mM NaCl, 0.1% (v/v) Tween-20) and appropriate primary and secondary antibodies were used for immunodetection. The proteins were visualized by ECL Plus reagent according to the manufacturer’s instructions. The intensity of bands was semi-quantitatively analysed using the ImageJ software (National Institute of Mental Health, Bethesda, MD, USA).

cyclin B1 = assay: Western blot of cyclin B1 in MCF-7 cells; format: cell-based, human; settings: MCF-7, 24 h
Procedure: as §4
as §5, with “Then, the membranes were blocked with 5% non-fat dry milk in TBST (10 mM Tris-HCl pH = 7.5, 150 mM NaCl, 0.1% (v/v) Tween-20) and appropriate primary and secondary antibodies were used for immunodetection. The proteins were visualized by ECL Plus reagent according to the manufacturer’s instructions.” left out

caspase 3 = assay: Western blot of caspase 3 in THP-1 cells; format: cell-based, human; settings: THP-1, 10 μM, 24 h
Procedure: (§6) Most of the apoptotic signalling pathways are controlled by caspases that belong to a group of cysteine proteases. To assess whether compound 2 affects these signalling cascades and which pathway is activated (intrinsic or extrinsic), the activities of caspase 3, caspase 9, and caspase 8 were evaluated using Western blot analysis.
as §5, with “Then, the membranes were blocked with 5% non-fat dry milk in TBST (10 mM Tris-HCl pH = 7.5, 150 mM NaCl, 0.1% (v/v) Tween-20) and appropriate primary and secondary antibodies were used for immunodetection. The proteins were visualized by ECL Plus reagent according to the manufacturer’s instructions.” left out

caspase 9 = assay: Western blot of caspase 9 in THP-1 cells; format: cell-based, human; settings: THP-1, 24 h, most pronounced at 10 μM
Procedure: as §6
as §5, with “Then, the membranes were blocked with 5% non-fat dry milk in TBST (10 mM Tris-HCl pH = 7.5, 150 mM NaCl, 0.1% (v/v) Tween-20) and appropriate primary and secondary antibodies were used for immunodetection. The proteins were visualized by ECL Plus reagent according to the manufacturer’s instructions.” left out

O=C(Nc1cccc([N+](=O)[O-])c1)c1cc2ccccc2cc1O [Compound 2, 3-hydroxy-N-(3-nitrophenyl)naphthalene-2-carboxamide]
effect on cell proliferation (3T3-L1 cells; 3T3-L1, 24 h): did not decrease cell growth at any of concentrations used
IC50 (3T3-L1 cells; Mus musculus, 3T3-L1, WST-1, 24 h, non-tumour cells, mean ± SD): > 20 µM
CC50 at 24 h [1]: 7.91 ± 0.24 µM
LC50 compared to IC50 (THP-1 cells): 2–3 fold
distribution of cells in cell cycle phases (MCF-7 cells): induced accumulation of cells in G1 phase
sub-G1 / sub-diploid population (MCF-7 cells): did not induce any elevation of the sub-G1 peak
expression of cyclin E1 (cyclin E1): dose-dependent decrease in expression of cyclin E1
levels of cyclin E1 low molecular weight (LMW E1) isoform (cyclin E1): more pronounced reduction of LMW E1 isoform levels
total protein levels of cyclin B1 (cyclin B1): total protein levels of cyclin B1 were not changed
decrease of pro-caspase 3 (inactive form) compared to control (caspase 3): approximately two-fold
increase of active caspase 3 level in comparison to control (caspase 3): approximately two-fold
cleaved caspase 9 levels (caspase 9): significant increase of cleaved caspase 9 levels
